Molecules are shown by their SMILES.

Series [1] in a line: Clinical efficiency of DIM-HB and crystalline DIM in equal doses. It counts as in vivo, human. From the text:
All classical studies compared the efficiencies of DIM-HB and crystalline DIM in equal doses.
These differences are probably attributed to effective therapeutic DIM concentrations reached in the peripheral blood and target tissues in response to DIM-HB treatment.

Series [2] is described as follows: DIM concentration in patients' blood plasma. The following applies: dose 100 mg. It counts as in vivo, human. From the text: Study of DIM Concentration in Patients' Blood Plasma These differences are probably attributed to effective therapeutic DIM concentrations reached in the peripheral blood and target tissues in response to DIM-HB treatment.
On the set-up of series [3]: species or system rats. The conditions noted are these: rat, in vivo, 200 mg/kg. The method, then: Concentration of 3,3′-diindolylmethane (μg/ml) in the Blood Plasma of Experimental Animals Given 200.0 mg/kg of 3,3′-diindolylmethane Substance Intrastomachically.
The results of measurements of 3,3′-diindolylmethane substance concentration in the blood plasma of rats given the substance intrastomachically are shown in Table 1.
3,3′-diindolylmethane Concentration (μg/ml) in the Blood Plasma of Experimental Animals Given […] of High-Bioavailability 3,3′-diindolylmethane Intrastomachically.
The results of measurements of 3,3′-diindolylmethane substance concentration in the blood plasma of rats given the substance intrastomachically are shown in Table 2.

Turning to `c1ccc2c(Cc3c[nH]c4ccccc34)c[nH]c2c1` [Crystalline DIM, 3,3′-diindolylmethane], in series [1], the “dynamics in all study groups of patients in response to treatment” value is on record as “no dynamics at all”. Also, the “DIM concentration in the plasma” value in series [2] was 20 to 30 ng/mL. In addition, in series [3], the “maximum concentration in the system blood flow” value was in the range of 0.13 to 0.17 µg/mL, the “minimum concentration 12 hours after administration” value is reported as “less than 0.03 μg/ml” and the “time at which the maximum concentration was observed” value was “about 1 hour”.

The values are drawn from patent publication US8697123B2, “Medication on the basis of 3,3′-diindolylmethane (DIM) with high-bioavailability and its use in treatment of human hyperplastic and inflammatory diseases” (Zakrytoye akstionernoye obschestvo “VELES FARMA”, priority 2010, dated 2014).
